Source: patent publication US8796259B2, “N3-heteroaryl substituted triazoles and N5-heteroaryl substituted triazoles useful as axl inhibitors” (Rigel Pharmaceuticals, Inc., priority 2006, dated 2014)

Each compound was assayed against T1, Axl (Homo sapiens, UniProt P30530) (assay: Phospho-Akt in-cell Western assay (inhibition of Axl activity, Axl-antibody cross-linking stimulation)). Conditions: Hela cells, phospho-Akt readout; compounds of formula (Ia), Table 1.
T1 construct: endogenous in cells; host or cells: HeLa cells
T1 sequence (P30530 26-894): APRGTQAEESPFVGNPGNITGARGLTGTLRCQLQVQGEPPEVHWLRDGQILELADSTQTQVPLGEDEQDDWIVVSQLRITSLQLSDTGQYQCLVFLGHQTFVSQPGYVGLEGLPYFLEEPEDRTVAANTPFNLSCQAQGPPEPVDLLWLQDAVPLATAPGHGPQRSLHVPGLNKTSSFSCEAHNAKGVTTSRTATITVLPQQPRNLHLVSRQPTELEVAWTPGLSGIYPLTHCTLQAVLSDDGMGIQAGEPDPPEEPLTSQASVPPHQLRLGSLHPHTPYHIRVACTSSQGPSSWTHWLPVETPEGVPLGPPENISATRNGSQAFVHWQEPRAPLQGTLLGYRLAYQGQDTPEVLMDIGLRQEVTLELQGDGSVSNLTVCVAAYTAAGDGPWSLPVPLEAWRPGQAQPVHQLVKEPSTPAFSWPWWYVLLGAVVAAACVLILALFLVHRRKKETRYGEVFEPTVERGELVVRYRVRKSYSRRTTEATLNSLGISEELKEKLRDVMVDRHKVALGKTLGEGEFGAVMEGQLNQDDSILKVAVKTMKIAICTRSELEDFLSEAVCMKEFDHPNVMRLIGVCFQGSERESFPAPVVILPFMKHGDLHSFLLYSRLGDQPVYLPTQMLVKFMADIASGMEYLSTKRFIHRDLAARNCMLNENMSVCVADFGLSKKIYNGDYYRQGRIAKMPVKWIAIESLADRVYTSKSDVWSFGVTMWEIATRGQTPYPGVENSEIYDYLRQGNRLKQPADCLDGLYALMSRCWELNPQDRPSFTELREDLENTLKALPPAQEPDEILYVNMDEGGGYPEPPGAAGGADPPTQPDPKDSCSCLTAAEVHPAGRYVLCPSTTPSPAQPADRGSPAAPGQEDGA
Format: cell-based
Method in brief: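 HeLa cells on poly-L-lysine were starved 24 h in 0.5% FCS/DMEM with 500 ng/mL Axl/Fc, pre-treated with compound 1 h at 37 °C, then stimulated 5 min by cross-linked mouse anti-Axl/biotin anti-mouse antibody clusters. After formaldehyde fixation, phospho-Akt was detected by rabbit anti-phospho-Akt and HRP secondary with chemiluminescence read-out.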

`Cc1csc2c(-n3nc(Nc4cnc(N5CCC(N6CCCC6)CC5)nc4)nc3N)nc(Cl)nc12` [compound 91, 1-(2-chloro-7-methylthieno [3,2-d]pyrimidin-4-yl)-N^3-(2-(4-pyrrolidin-1ylpiperidin-1-yl)pyrimidin-5-yl)-1H-1,2,4-triazole-3,5-diamine] and `Cc1csc2c(-n3nc(Nc4cnc5c(c4)CCC(N4CCCC4)CC5)nc3N)ncnc12` (stereo not drawn) [compound 105, 1-(7-methylthieno [3,2-d]pyrimidin-4-yl)-N^3-(7-(pyrrolidin-1-yl)-6,7,8,9-tetrahydro-5H-cyclohepta [b]pyridine-3-yl)-1H-1,2,4-triazole-3,5-diamine] cannot be ordered by IC50: < 1000 nM for the first, < 1000 nM for the second.

`Cc1cc(Nc2nc(N)n(-c3ncnc4c(C)csc34)n2)cnc1N1CCN(CC2CC2)CC1` [compound 94, 1-(7-methylthieno [3,2-d]pyrimidine-4-yl)-N^3-(6-(4-(cyclopropyl-methyl)piperazin-1-yl)-5-methyl-pyridine-3-yl)-1H-1,2,4-triazole-3,5-diamine] and `Cc1cc(Nc2nc(N)n(-c3nc(Cl)nc4c(C)csc34)n2)cnc1N1CCN(CC2CC2)CC1` [compound 95, 1-(2-chloro-7-methylthieno [3,2-d]pyrimidin-4-yl)-N^3-(6-(4-(cyclopropyl-methyl)piperazin-1-yl)-5-methyl-pyridin-3-yl)-1H-1,2,4-triazole-3,5-diamine] cannot be ordered by IC50: < 1000 nM for the first, < 1000 nM for the second.

`Cc1csc2c(-n3nc(Nc4cnc5c(c4)CN(C(=O)C4CCN(C)CC4)CC5)nc3N)ncnc12` [compound 96, 1-(7-methylthieno [3,2-d]pyrimidin-4-yl)-N^3-(6-(1-methyl-piperidin-4-yl)carbonyl-5,6,7,8-tetrahydro-1,6-naphthyridin-3-yl)-1H-1,2,4-triazole-3,5-diamine] and `Cc1csc2c(-n3nc(Nc4cnc5c(c4)CC(NC(=O)C4CCN(C)CC4)CC5)nc3N)ncnc12` (stereo not drawn) [compound 98] cannot be ordered by IC50: < 1000 nM for the first, < 1000 nM for the second.

`Cc1csc2c(-n3nc(Nc4cnc5c(c4)CN(C4CCCC4)CC5)nc3N)ncnc12` [compound 97, 1-(7-methylthieno [3,2-d]pyrimidin-4-yl)-N^3-(6-cyclopentyl-5,6,7,8-tetrahydro-1,6-naphthyridin-3-yl)-1H-1,2,4-triazole-3,5-diamine] and `Cc1csc2c(-n3nc(Nc4cnc5c(c4)CC(NC4CCCC4)CC5)nc3N)ncnc12` (stereo not drawn) [compound 99, 1-(7-methylthieno [3,2-d]pyrimidin-4-yl)-N^3-(6-cyclopentyl-amino-5,6,7,8-tetrahydro-quinolin-3-yl)-1H-1,2,4-triazole-3,5-diamine] cannot be ordered by IC50: < 1000 nM for the first, < 1000 nM for the second.

`Cc1csc2c(-n3nc(Nc4cnc5c(c4)CC(NC4CCCCC4)CC5)nc3N)nc(Cl)nc12` (stereo not drawn) [compound 100, 1-(2-chloro-7-methylthieno [3,2-d]pyrimidin-4-yl)-N^3-(6-cyclohexyl-amino-5,6,7,8-tetrahydro-quinolin-3-yl)-1H-1,2,4-triazole-3,5-diamine] and `Cc1csc2c(-n3nc(Nc4cnc5c(c4)CC(NC4CC6CCC4C6)CC5)nc3N)nc(Cl)nc12` (stereo not drawn) [compound 103, 1-(2-chloro-7-methylthieno [3,2-d]pyrimidin-4-yl)-N^3-(6-bicyclo[2.2.1]heptan-2-yl-amino-5,6,7,8-tetrahydro-quinolin-3-yl)-1H-1,2,4-triazole-3,5-diamine] cannot be ordered by IC50: < 1000 nM for the first, < 1000 nM for the second.

`Cc1csc2c(-n3nc(Nc4cnc5c(c4)CN(CC4CC4)CC5)nc3N)nc(Cl)nc12` [compound 101, 1-(2-chloro-7-methylthieno [3,2-d]pyrimidin-4-yl)-N^3-(6-cyclopropyl-methyl-5,6,7,8-tetrahydro-1,6-naphthyridin-3-yl)-1H-1,2,4-triazole-3,5-diamine] and `Cc1csc2c(-n3nc(Nc4cnc5c(c4)CN(C4CC6CCC4C6)CC5)nc3N)nc(Cl)nc12` (stereo not drawn) [compound 102, 1-(2-chloro-7-methylthieno [3,2-d]pyrimidin-4-yl)-N^3-(6-bicyclo[2.2.1]heptan-2-yl-5,6,7,8-tetrahydro-1,6-naphthyridin-3-yl)-1H-1,2,4-triazole-3,5-diamine] cannot be ordered by IC50: < 1000 nM for the first, < 1000 nM for the second.

First: Cc1csc2c(-n3nc(Nc4cnc5c(c4)CC(N(CC4CC4)CC4CC4)CC5)nc3N)nc(Cl)nc12 (stereo not drawn) [compound 104, 1-(2-chloro-7-methylthieno [3,2-d]pyrimidin-4-yl)-N^3-(6-bis-(cyclo-propylmethyl)amino-5,6,7,8-tetrahydro-quinolin-3-yl)-1H-1,2,4-triazole-3,5-diamine]
Second: Cc1csc2c(-n3nc(Nc4ccc(N5CCN(CC6CC6)[C@@H](C)C5)nc4)nc3N)nc(Cl)nc12 [compound 115, 1-(2-chloro-7-methyithieno [3,2-d]pyrimidin-4-yl)-N^3-(2-(4-cyclopropyl-methyl-3-(S)-methyl-piperazin-1-yl)pyridin-5-yl)-1H-1,2,4-triazole-3,5-diamine]
The IC50 of the first is lower: < 1000 nM for the first, 1000 to 10000 nM for the second.

`Cc1cc(Nc2nc(N)n(-c3ncnc4c(C)csc34)n2)cnc1N1CCN([C@H]2C[C@@H]3CC[C@H]2C3)[C@@H](C)C1` [compound 106, 1-(7-methylthieno [3,2-d]pyrimidin-4-yl)-N^3-(2-(3-(S)-methyl-4-(1S,2S,4R)-bicyclo[2.2.1]heptan-2-ylpiperazin-1-yl)-3-methylpyridin-5-yl)-1H-1,2,4-triazole-3,5-diamine] and `Cc1cc(Nc2nc(N)n(-c3nc(Cl)nc4c(C)csc34)n2)cnc1N1CCN([C@H]2CC3CCC2C3)[C@@H](C)C1` (stereo partly drawn) [compound 107, 1-(2-chloro-7-methylthieno [3,2-d]pyrimidin-4-yl)-N^3-(2-(3-(S)-methyl-4-(2S)-bicyclo[2.2.1]heptan-2-ylpiperazin-1-yl)-3-methylpyridin-5-yl)-1H-1,2,4-triazole-3,5-diamine] cannot be ordered by IC50: < 1000 nM for the first, < 1000 nM for the second.

`Cc1cc(Nc2nc(N)n(-c3ncnc4ccsc34)n2)cnc1N1CCN([C@H]2CC3CCC2C3)[C@@H](C)C1` (stereo partly drawn) [compound 108, 1-(thieno [3,2-d]pyrimidin-4-yl)-N^3-(2-(3-(S)-methyl-4-(2S)-bicyclo[2.2.1]heptan-2-ylpiperazin-1-yl)-3-methylpyridin-5-yl)-1H-1,2,4-triazole-3,5-diamine] and `Cc1cc(Nc2nc(N)n(-c3ncnc4c(C)csc34)n2)cnc1N1CCN([C@H]2CC3CCC2C3)CC1` (stereo partly drawn) [compound 111, 1-(7-methylthieno [3,2-d]pyrimidin-4-yl)-N^3-(2-(4-(2S)-bicyclo[2.2.1]heptan-2-ylpiperazin-1-yl)-3-methylpyridin-5-yl)-1H-1,2,4-triazole-3,5-diamine] cannot be ordered by IC50: < 1000 nM for the first, < 1000 nM for the second.

First: Cc1csc2c(-n3nc(Nc4cnc(N5CCN([C@H]6CC7CCC6C7)CC5)c(Cl)c4)nc3N)nc(Cl)nc12 (stereo partly drawn) [compound 109, 1-(2-chloro-7-methylthieno [3,2-d]pyrimidin-4-yl)-N^3-(2-(4-(2S)-bicyclo[2.2.1]heptan-2-ylpiperazin-1-yl)-3-chloropyridin-5-yl)-1H-1,2,4-triazole-3,5-diamine]
Second: Cc1csc2c(-n3nc(Nc4cnc(N5CCN([C@H]6CC7CCC6C7)CC5)c(Cl)c4)nc3N)ncnc12 (stereo partly drawn) [compound 110, 1-(7-methylthieno [3,2-d]pyrimidin-4-yl)-N^3-(2-(4-(2S)-bicyclo[2.2.1]heptan-2-ylpiperazin-1-yl)-3-chloropyridin-5-yl)-1H-1,2,4-triazole-3,5-diamine]
The IC50 of the first is lower: 1000 to 10000 nM for the first, 10000 to 20000 nM for the second.

Compared with `Cc1cc(Nc2nc(N)n(-c3nnc(C)c4ccsc34)n2)cnc1N1CCN([C@H]2C[C@@H]3CC[C@H]2C3)CC1` [compound 112, 1-(4-methylthieno [3,2-d]pyridazine-7-yl)-N^3-(2-(4-(1S,2S,4R)-bicyclo[2.2.1]heptan-2-ylpiperazin-1-yl)-3-methylpyridin-5-yl)-1H-1,2,4-triazole-3,5-diamine], `COc1cc2ncnc(-n3nc(Nc4ccc(N5CCN(CC6CC6)[C@@H](C)C5)nc4)nc3N)c2cc1OC` [compound 114, 1-(6,7-dimethoxy-quinazoline-4-yl)-N^3-(2-(4-cyclo-propylmethyl-3-(S)-methyl-piperazin-1-yl)pyridin-5-yl)-1H-1,2,4-triazole-3,5-diamine] is lower in IC50: > 20000 nM for the first, < 1000 nM for the second.

In the case of `COc1cc2ncnc(-n3nc(Nc4ccc(C=CCN5CCN(C(C)C)CC5)nc4)nc3N)c2cc1OC` [compound 113, 1-(6,7-dimethoxy-quinazoline-4-yl)-N^3-(2-(3-(4-isopropyl-piperazin-1-yl)propen-1-yl)pyridine-5-yl)-1H-1,2,4-triazole-3,5-diamine], the IC50 is reported as < 1000 nM.

Same assay, conditions: Hela cells, phospho-Akt readout; compounds of formula (Ib), Table 2

Work on `Cc1cc(Nc2nc(N)nn2-c2nc(Cl)nc3c(C)csc23)cnc1N1CCC(N2CCCC2)CC1` [compound 92, 1-(2-chloro-7-methylthieno[3,2-d]pyrimidin-4-yl)-N^5-(6-(4-(pyrrolidin-1-yl)piperidin-1-yl)-5-methylpyridin-3-yl)-1H-1,2,4-triazole-3,5-diamine] yielded an IC50 of 1000 to 10000 nM.
